Experimental findings from patent publication US7273875B2, “Naphthyridine derivatives, their preparation and their use as phosphodiesterase isoenzyme 4 (PDE4) inhibitors” (Novartis AG, priority 2001, dated 2007) are described below.

Each structure is given as a SMILES string. Structures can show the parent of a compound that is named as a salt. Bounds are passed on as bounds.

Data set [1] addresses T1, human PDE4D (Homo sapiens, UniProt Q08499).
T1 construct: PDE4 cDNA constructs containing the coding regions of the three isoenzymes; made in house; host or cells: Sf21 insect cells (baculovirus, Bac-To-Bac)
Kind of data set: PDE4 isoenzyme inhibition assay (SPA), PDE4D. In kind it is biochemical. Conditions: [3H]-cAMP, 1 μM cAMP, 30-60 minutes at room temperature, 1% DMSO. The source says:
PDE4 Isoenzyme Inhibition Assay
Cloning: GATEWAY flanked PDE4 cDNA constructs containing the coding regions of the three isoenzymes, human PDE4A, human PDE4B, and human PDE4D are generated by PCR and transposed into the GATEWAY shuttle vector pDONOR-201. In addition a 6-histidine tag is introduced by PCR onto the carboxyl terminal end of each of the constructs to facilitate protein purification. Following sequence verification, the PDE4 constructs are transposed into the GATEWAY expression vector pDEST-8, Positive recombinants are selected and transposed into E. coli strain DH10Bac and bacmid produced transfected into SF21 cells using Bac-To-Bac (Invitrogen Life Technologies). Positive transfections are selected and used to generate high titer viral stocks for use in protein expression.
PDE4 Expression: Sf21 cells are grown to a density of 2×10^6 cells/ml and infected with human PDE4A, PDE4B or PDE4D3 containing baculovirus to a multiplicity of infection (m.o.i.) of 1 for 72 hours. The infected cells are harvested by centrifugation at 1,400 g for 4 minutes at 4° C. and the cell pellets are frozen at −80° C. Sf21 (Spodoptera frugiperda 21) insect cells are routinely maintained at densities between […] and 3×10^6 cells/ml in SF00 Serum Free Medium (Invitorgen Life Technologies). Sf21 cells ([…]) are resuspended in 100 ml cold (4° C.) Lysis Buffer (50 mM Na2HPO4, 200 mM NaCl, 10 mM Imidazole). Cells are incubated on ice for 30 minutes then centrifuged at 15,000 g for 20 minutes at 4° C.
PDE4 Purification: The 6 Histidine-tagged PDE4 proteins are isolated from crude cell lysates by a batch-wise Ni-NTA purification strategy (QIAGEN). N-NTA resin is first pre-rinsed to remove ethanol preservative and equilibrated with Lysis Buffer. Cell lysate is added, (10 ml 50% Ni-NTA slurry resin per 50 ml lysate), and gently rotated on a mixer at 4° C. for 1-2 hours. The sample is then centrifuged at 1,000 g for 5 minutes at 4° C. using Denley benchtop centrifuge. The supernatant is removed and the resin is washed 3 times with 50 ml ice cold Wash Buffer (50 mM Na2HPO4, 300 mM NaCl and 20 mM imidazole) followed by centrifugation at 1,000 g for 5 min at 4° C. The 6His-tagged protein is eluted from the resin with 3×5 ml ice cold Elution Buffer (50 mM NaH2PO4, 300 mM NaCl, 250 mM imidazole) and collected by centrifugation at 1,000 g for 5 minutes at 4° C. The supernatants are then pooled before buffer exchange and concentration using a VivaScience 20 ml SK 0.2 μM Concentrator. Samples are aliquoted and stored at −20° C.
PDE4 Assay: The assay is based on Amersham Pharmacia Biotech Scintillation Proximity Assay (SPA) technology. Enzyme is diluted with enzyme dilution buffer (10 mM Tris-HCl, pH7.5 containing 1 mM EDTA) in order to obtain between 10-30% total substrate hydrolysis during the assay. The enzymatic reaction is started by adding 10 μl diluted enzyme to 80 μl substrate (0.1 μCi [3H]-cAMP, 1 μM cAMP) and 10 μl inhibitor solution in a 96-well microtiter plate. After 30-60 minutes incubation at room temperature the reaction is stopped by adding 50 μl PDE SPA beads (20 mg/ml). After 30 minutes the plate is centrifuged (3000 g, 10 minutes) and counted (Packard TopCount).
Inhibitor stock solutions are prepared in 100% dimethylsulphoxide (DMSO) and diluted with DMSO/water to achieve 10 concentrations to cover the range of 0-100% inhibition. The concentration of DMSO is kept constant at 1% (v/v) throughout the assay.
The concentration at which 50% inhibition occurs (IC50) is determined from inhibition—concentration curves in a conventional manner.

T1 sequence (Q08499 1-673 isoform Q08499-2): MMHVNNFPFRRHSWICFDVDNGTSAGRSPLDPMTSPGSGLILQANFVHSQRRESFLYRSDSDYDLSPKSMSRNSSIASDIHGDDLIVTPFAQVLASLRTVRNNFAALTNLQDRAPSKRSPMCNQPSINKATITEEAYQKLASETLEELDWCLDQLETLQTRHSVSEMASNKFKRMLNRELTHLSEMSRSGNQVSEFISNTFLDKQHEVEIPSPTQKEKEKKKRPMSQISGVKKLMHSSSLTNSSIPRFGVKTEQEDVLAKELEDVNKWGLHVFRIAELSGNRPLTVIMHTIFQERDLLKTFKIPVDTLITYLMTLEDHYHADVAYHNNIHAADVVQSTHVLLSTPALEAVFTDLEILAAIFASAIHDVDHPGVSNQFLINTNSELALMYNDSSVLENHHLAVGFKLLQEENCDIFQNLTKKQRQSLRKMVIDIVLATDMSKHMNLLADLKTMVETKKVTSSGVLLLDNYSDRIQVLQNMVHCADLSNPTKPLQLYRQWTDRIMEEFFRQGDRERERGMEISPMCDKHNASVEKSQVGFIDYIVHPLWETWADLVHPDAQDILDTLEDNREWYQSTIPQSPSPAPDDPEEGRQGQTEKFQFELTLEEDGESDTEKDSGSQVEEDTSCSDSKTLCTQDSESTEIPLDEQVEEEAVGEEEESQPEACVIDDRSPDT

`O=C(O)C1CCC(c2cc3cccnc3c(-c3cccc(F)c3)n2)CC1` (stereo not drawn) [Example 12, 4-[8-(3-Fluorophenyl)-[1,7]naphthyridin-6-yl]-cyclohexanecarboxylic acid] returned an IC50 in data set [1] of 21 nM.

On to `CSc1cccc(-c2nc(C3CCC(C(=O)O)CC3)cc3cccnc23)c1` (stereo not drawn) [Example 15, 4-[8-(3-Methylsulfanyl-phenyl)-[1,7]naphthyridin-6-yl]-cyclohexanecarboxylic acid], for which the melting point lay within 177.6 to 178.2 °C. In data set [1], this compound displayed a concentration for half-maximal inhibition (IC50) of 9 nM. Compound `N#Cc1cccc(-c2nc(C3CCC(C(=O)O)CC3)cc3cccnc23)c1` (stereo not drawn) [Example 3, 4-[8-(3-Cyano-phenyl)-[1,7]naphthyridin-6-yl]-cyclohexanecarboxylic acid] returned a concentration for half-maximal inhibition (IC50) in data set [1] of 9 nM. The compound `O=C(O)C1CCC(c2cc3cccnc3c(-c3cccc(OC(F)(F)F)c3)n2)CC1` (stereo not drawn) [Example 14, 4-[8-(3-Trifluoromethoxyphenyl)-[1,7]naphthyridin-6-yl]-cyclohexanecarboxylic acid] displayed an IC50 in data set [1] of 57 nM.

`CCOC(=O)C1CCC(c2cc3cccnc3c(-c3cccc(C#N)c3)n2)CC1` (stereo not drawn) [Example 1, 4[8-(3-Cyano-phenyl)-[1,7]naphthyridin-6-yl]-cyclohexanecarboxylic acid ethyl ester] had an IC50 in data set [1] of 38 nM.

As for `N#Cc1cccc(-c2nc(C3CCC(C(=O)O)CC3)cc3cccnc23)c1` (stereo not drawn) (as salt: potassium) [Example 3, 4-[8-(3-Cyano-phenyl)-[1,7]naphthyridin-6-yl]-cyclohexanecarboxylic acid], the melting point was over 250 °C. `COc1cccc(-c2nc(C3CCC(C(=O)O)CC3)cc3cccnc23)c1` (stereo not drawn) [Example 10, 4-[8-(3-Methoxy-phenyl)-[1,7]naphthyridin-6-yl]-cyclohexanecarboxylic acid] had a melting point of 209 to 212 °C. Moreover, the IC50 in data set [1] is 25 nM.

What is called IC50 is the concentration at which inhibition is half-maximal. In general, melting point refers to the temperature of the solid-liquid transition.
